Experiments:
Human MMP-14 = Human MMP-14 (Homo sapiens, UniProt P50281); test: MMP enzymatic activity, modified fluorescence assay (DNP-substrate); assay type: biochemical
Experimental: (§1) IC50 values are measured by an in vitro assay for MMP enzymatic activity. Such an assay is described by Stack, M. S., and Gray, R. D., J. Biol. Chem. 264 (1989) 4277-4281. This assay is based on the determination of MMP enzymatic activity on a dinitrophenol substrate and fluorescence measurement of the substrate after cleaving by MMPs.
(§2) Inhibitors were tested in a modified fluorescence-assay as described by Stack, M. S., and Gray, R. D., J. Biol. Chem. 264 (1989) 4277-4281. Human MMP-1, MMP-2, MMP-3, MMP-9 and MMP-14 are commercially available (e.g. Calbiochem). The pro-enzymes were activated with 1 mM APMA (incubation for 30 min at 37° C.) immediately before testing. Activated enzyme is diluted to 100 ng/ml in incubation buffer (50 mM Tris, 100 mM NaCl, 10 mM CaCl2, pH 7.6). The compounds were dissolved in 100% DMSO. […] DNP-substrate (Bachem M1855, 255 μM) was dissolved in incubation buffer.
(§3) The test tube contains 970 μl incubation buffer, 10 μl inhibitor solution and 10 μl enzyme solution. The reaction was started by adding the 10 μl substrate solution.
(§4) Kinetics of activity were determined using excitation at 280 nm and emission at 346 nm measured on a FluoroMax™ (Spex Industries Inc., Edison, N.J., USA) over 120 sec. DMSO has been used as control instead of inhibitor solution.
(§5) IC50's are defined as the concentration of inhibitor that gives a signal that is 50% of the positive enzyme control.

Human MMP-9 = Human MMP-9 (Homo sapiens, UniProt P14780); test: as above; assay type: biochemical
Experimental: as §1, §2, §3, §4, §5

Sequence of Human MMP-9 (P14780 107-707 limits assumed): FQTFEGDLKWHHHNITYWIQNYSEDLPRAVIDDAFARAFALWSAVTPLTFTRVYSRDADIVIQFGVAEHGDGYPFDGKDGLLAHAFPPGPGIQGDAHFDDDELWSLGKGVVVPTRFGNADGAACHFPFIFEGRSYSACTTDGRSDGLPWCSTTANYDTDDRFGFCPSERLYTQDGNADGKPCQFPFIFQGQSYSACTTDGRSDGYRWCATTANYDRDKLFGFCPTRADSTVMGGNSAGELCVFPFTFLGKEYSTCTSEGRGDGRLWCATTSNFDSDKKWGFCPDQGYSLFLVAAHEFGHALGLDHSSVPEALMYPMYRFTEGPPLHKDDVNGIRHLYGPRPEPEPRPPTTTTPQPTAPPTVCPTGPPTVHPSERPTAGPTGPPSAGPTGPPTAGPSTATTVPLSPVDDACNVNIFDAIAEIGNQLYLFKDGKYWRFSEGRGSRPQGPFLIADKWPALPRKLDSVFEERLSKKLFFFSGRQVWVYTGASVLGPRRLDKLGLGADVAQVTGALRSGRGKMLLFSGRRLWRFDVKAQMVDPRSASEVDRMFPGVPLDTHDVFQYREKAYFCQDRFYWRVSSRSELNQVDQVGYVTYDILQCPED

**Q.** Which results are given for `O=C1NC(=O)C(c2ccc(-c3ccccc3)cc2)(N2CCN(c3ccc([N+](=O)[O-])cc3)CC2)C(=O)N1` [Compound I, 5-Biphenyl-4-yl-5-[4-(4-nitro-phenyl)-piperazin-1-yl]pyrimidine-2,4,6-trione]?
**A.** IC50 (Human MMP-14): 1 nM; IC50 (Human MMP-9): 260 nM

Source: US20070225253A1, “Use of a trioxopyrimidine for the treatment and prevention of bronchial inflammatory diseases” (priority 2004, published 2007)
